Measured values taken from patent publication US5192747A, “Anticoagulant peptides” (Merrell Dow Pharmaceuticals Inc., priority 1991, dated 1993).
Starred links: 1 amine or outer side, 2 acyl side, 3 side chain; linkers in the order of their positions; H or OH if unused. Non-standard residues stand in square brackets, D forms with d. Residues, ends and D or L forms follow the SMILES beside them. Cha = N[C@@H](CC1CCCCC1)C(=O)O; Suc = O=C(CCC(=O)[*:2])[*:1]

target: Bovine thrombin (Bos taurus, UniProt P00735); assay: thrombin induced fibrin clot inhibition assay; format: biochemical
Experimental: Samples were tested in a thrombin induced fibrin clot inhibition assay. All the solutions of the assay were made with an assay buffer containing 0.12M sodium chloride, 0.01M sodium phosphate, 0.01% sodium azide and 0.1% bovine serum albumin, pH 7.4. […] This solution of thrombin (50 ul; 0.2 pmol) was added to the wells of a microtiter plate containing 50 ul of a solution of the synthetic peptide being tested. […] The turbidity of the solution was monitored by the autoreader at 5 min intervals. […] This is equivalent to a twofold increase in fibrin clot formation time. For the assays using human thrombin,, it and bovine thrombin were titrated to concentrations which gave the fibrin clot at the same rate over a 30 min period.

Compound	IC50 [µM]
CC[C@H](C)[C@H](NC(=O)[C@@H]1CCCN1C(=O)[C@H](CCC(=O)O)NC(=O)[C@H](Cc1ccc(O)cc1)NC(=O)CCC(=O)O)C(=O)N1CCC[C@H]1C(=O)N[C@@H](CCC(=O)O)C(=O)N[C@@H](CCC(=O)O)C(=O)N[C@@H](CC1CCCCC1)C(=O)N[C@@H](CCC(N)=O)C(N)=O [compound 5, Suc--Tyr--Glu--Pro--Ile-- Pro--Glu--Glu--Cha--Gln--NH2] (Suc-YEPIPEE[Cha]Q-NH2)	< 25
CC[C@H](C)[C@H](NC(=O)[C@@H]1CCCN1C(=O)[C@H](CCC(=O)O)NC(=O)[C@H](Cc1ccc(O)cc1)NC(=O)CCC(=O)O)C(=O)N1CCC[C@H]1C(=O)N[C@@H](CCC(=O)O)C(=O)N[C@@H](CCC(=O)O)C(=O)N[C@@H](CC1CCCCC1)C(=O)N[C@H](CCC(=O)O)C(=O)O [compound 15, Suc--Tyr--Glu--Pro--Ile--Pro--Glu--Glu--Cha--D-Glu--OH]	< 25
CC[C@H](C)[C@H](NC(=O)[C@@H]1CCCN1C(=O)[C@H](CCC(=O)O)NC(=O)[C@H](Cc1ccc(O)cc1)NC(=O)CCC(=O)O)C(=O)N1CCC[C@H]1C(=O)N[C@@H](CCC(=O)O)C(=O)N[C@@H](CCC(=O)O)C(=O)N[C@@H](C)C(=O)N[C@@H](CC1CCCCC1)C(=O)O [compound 18, Suc--Tyr--Glu--Pro--Ile--Pro--Glu--Glu--Ala--Cha--OH]	< 25
